Key:
[1] = test system: phosphorylation of S6 and 4E-BP1; experiment: Western blot of mTOR signaling; assay type: cell-based, human; settings: glioma cells
KDR = KDR (Homo sapiens, UniProt P35968); experiment: Biochemical kinase assay, KDR
c-Met = c-Met (Homo sapiens, UniProt P08581); experiment: Biochemical kinase assay, c-Met
Tek = Tek (Homo sapiens, UniProt Q02763); experiment: Biochemical kinase assay, Tek
phosphorylation of Akt = experiment: Inhibition of Akt phosphorylation by immunoblot in U87MG and LN18 cells; settings: Homo sapiens, read-out: IC50 for inhibiting phosphorylation of Akt
PDK1 = molecular target: T1, PDK1 (Homo sapiens, UniProt O15530); experiment: Biochemical kinase assay, PDK1
T1 sequence (O15530 1-556): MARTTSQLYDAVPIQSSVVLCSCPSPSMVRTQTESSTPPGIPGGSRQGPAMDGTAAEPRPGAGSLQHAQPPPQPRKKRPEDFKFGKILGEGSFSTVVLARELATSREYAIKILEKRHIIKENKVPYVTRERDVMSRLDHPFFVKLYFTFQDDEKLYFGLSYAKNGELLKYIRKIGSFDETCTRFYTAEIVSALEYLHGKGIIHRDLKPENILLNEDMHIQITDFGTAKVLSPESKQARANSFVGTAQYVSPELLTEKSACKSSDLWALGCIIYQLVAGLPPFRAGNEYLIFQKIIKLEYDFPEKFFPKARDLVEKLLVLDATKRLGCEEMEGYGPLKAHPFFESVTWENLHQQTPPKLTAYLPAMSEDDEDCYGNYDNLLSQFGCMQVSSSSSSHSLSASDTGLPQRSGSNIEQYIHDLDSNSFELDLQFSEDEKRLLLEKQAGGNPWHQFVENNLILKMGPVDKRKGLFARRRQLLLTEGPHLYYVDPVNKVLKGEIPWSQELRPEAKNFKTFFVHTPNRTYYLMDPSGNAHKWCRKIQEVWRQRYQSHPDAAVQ

FGFR3 = FGFR3 (Homo sapiens, UniProt P22607); experiment: Biochemical kinase assay, FGFR3
[2] = test system: U87 intracranial xenografts; experiment: Intracranial U87 glioma xenograft survival model; assay type: in vivo; settings: nude mice, control 26 days
D54 cells = experiment: Mitotic index; assay type: cell-based, human; settings: D54 (p53-wt); 2 μm, 72 hours; control cells 1% to 3%
U343 cells = experiment: Mitotic index; assay type: cell-based, human; settings: U343 (p53-wt); 2 μm, 72 hours; control cells 1% to 3%
[3] = Tolerability in treated tumor-bearing mice; assay type: in vivo; settings: 20 or 40 mg/kg oral
glioma cell lines = experiment: Annexin V apoptosis assay by flow cytometry; settings: 72 hours
LN229 cells = experiment: Mitotic index; assay type: cell-based, human; settings: LN229 (p53-mutant/deleted); 2 μm, 72 hours; control cells 1% to 3%
U251 cells = experiment: Mitotic index; assay type: cell-based, human; settings: U251 (p53-mutant/deleted); 2 μm, 72 hours; control cells 1% to 3%
U87 cells = experiment: Mitotic index; assay type: cell-based, human; settings: U87 (p53-wt); 2 μm, 72 hours; control cells 1% to 3%
LN18 cells = experiment: Mitotic index; assay type: cell-based, human; settings: LN18 (p53-mutant/deleted); 2 μm, 72 hours; control cells 1% to 3%
p110δ = settings: cited from earlier work
P110α = P110α (Homo sapiens, UniProt P42336); settings: cited from earlier work
p110γ = settings: cited from earlier work

Sequence of Tek (Q02763 23-1124, species assumed): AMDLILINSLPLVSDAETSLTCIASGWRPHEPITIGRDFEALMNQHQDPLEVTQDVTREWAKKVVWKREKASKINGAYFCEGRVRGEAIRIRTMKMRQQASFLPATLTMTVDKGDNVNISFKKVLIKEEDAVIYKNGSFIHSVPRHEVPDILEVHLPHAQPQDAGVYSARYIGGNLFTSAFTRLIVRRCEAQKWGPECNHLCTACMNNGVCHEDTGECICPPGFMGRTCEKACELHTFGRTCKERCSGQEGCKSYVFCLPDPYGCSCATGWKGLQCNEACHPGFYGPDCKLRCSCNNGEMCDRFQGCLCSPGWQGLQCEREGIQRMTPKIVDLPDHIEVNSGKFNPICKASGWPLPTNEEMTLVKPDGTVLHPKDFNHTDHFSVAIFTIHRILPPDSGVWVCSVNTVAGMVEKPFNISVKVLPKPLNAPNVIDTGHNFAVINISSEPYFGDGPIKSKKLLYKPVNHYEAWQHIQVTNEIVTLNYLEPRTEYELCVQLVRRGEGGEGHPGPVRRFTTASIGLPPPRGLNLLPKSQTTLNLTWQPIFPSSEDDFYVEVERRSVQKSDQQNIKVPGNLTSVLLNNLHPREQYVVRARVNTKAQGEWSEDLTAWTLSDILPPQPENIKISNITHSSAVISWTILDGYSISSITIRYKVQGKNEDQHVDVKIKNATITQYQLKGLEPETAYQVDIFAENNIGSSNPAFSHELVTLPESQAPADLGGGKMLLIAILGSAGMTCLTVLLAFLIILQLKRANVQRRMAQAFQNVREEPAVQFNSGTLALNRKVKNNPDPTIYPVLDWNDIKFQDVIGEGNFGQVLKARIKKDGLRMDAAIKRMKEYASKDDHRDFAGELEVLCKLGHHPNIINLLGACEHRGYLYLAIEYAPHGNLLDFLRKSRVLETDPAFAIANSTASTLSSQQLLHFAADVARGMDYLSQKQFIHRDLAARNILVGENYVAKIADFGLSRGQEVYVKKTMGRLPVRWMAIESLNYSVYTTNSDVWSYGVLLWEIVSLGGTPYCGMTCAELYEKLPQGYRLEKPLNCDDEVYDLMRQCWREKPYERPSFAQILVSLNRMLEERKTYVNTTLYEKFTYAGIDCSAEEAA
Sequence of KDR (P35968 20-1356, species assumed): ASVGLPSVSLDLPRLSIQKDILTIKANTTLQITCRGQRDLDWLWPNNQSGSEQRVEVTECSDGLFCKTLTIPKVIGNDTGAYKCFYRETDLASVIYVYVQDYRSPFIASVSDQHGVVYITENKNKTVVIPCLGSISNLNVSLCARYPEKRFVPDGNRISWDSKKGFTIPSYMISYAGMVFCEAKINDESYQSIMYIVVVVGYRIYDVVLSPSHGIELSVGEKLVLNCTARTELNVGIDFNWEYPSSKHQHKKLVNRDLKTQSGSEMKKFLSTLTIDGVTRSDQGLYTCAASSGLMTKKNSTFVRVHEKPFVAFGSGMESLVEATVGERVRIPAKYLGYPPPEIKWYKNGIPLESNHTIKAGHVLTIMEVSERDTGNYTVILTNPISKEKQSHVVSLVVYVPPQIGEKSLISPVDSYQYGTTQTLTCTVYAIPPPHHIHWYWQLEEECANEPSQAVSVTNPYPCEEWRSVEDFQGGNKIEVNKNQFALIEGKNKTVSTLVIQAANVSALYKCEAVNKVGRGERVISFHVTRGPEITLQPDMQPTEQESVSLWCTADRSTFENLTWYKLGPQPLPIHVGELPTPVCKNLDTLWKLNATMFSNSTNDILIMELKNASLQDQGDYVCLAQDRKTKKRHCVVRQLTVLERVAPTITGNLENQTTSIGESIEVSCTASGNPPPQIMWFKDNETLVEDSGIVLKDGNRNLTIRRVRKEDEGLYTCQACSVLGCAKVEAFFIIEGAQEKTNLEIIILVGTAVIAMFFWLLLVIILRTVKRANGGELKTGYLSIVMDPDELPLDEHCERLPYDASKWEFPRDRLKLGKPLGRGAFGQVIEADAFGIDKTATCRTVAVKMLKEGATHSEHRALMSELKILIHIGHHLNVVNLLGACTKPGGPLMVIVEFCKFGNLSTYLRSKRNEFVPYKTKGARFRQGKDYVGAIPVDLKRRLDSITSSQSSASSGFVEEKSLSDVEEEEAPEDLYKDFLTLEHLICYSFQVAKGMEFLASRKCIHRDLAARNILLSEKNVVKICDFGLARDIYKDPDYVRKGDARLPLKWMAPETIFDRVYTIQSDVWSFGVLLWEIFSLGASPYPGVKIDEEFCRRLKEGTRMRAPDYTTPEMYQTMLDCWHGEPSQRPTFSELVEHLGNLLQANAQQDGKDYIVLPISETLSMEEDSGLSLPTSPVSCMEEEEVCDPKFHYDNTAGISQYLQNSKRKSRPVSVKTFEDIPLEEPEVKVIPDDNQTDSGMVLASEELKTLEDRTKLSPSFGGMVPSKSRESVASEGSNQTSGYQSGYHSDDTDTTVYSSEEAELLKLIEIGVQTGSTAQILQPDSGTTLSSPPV
Sequence of c-Met (P08581 25-1390): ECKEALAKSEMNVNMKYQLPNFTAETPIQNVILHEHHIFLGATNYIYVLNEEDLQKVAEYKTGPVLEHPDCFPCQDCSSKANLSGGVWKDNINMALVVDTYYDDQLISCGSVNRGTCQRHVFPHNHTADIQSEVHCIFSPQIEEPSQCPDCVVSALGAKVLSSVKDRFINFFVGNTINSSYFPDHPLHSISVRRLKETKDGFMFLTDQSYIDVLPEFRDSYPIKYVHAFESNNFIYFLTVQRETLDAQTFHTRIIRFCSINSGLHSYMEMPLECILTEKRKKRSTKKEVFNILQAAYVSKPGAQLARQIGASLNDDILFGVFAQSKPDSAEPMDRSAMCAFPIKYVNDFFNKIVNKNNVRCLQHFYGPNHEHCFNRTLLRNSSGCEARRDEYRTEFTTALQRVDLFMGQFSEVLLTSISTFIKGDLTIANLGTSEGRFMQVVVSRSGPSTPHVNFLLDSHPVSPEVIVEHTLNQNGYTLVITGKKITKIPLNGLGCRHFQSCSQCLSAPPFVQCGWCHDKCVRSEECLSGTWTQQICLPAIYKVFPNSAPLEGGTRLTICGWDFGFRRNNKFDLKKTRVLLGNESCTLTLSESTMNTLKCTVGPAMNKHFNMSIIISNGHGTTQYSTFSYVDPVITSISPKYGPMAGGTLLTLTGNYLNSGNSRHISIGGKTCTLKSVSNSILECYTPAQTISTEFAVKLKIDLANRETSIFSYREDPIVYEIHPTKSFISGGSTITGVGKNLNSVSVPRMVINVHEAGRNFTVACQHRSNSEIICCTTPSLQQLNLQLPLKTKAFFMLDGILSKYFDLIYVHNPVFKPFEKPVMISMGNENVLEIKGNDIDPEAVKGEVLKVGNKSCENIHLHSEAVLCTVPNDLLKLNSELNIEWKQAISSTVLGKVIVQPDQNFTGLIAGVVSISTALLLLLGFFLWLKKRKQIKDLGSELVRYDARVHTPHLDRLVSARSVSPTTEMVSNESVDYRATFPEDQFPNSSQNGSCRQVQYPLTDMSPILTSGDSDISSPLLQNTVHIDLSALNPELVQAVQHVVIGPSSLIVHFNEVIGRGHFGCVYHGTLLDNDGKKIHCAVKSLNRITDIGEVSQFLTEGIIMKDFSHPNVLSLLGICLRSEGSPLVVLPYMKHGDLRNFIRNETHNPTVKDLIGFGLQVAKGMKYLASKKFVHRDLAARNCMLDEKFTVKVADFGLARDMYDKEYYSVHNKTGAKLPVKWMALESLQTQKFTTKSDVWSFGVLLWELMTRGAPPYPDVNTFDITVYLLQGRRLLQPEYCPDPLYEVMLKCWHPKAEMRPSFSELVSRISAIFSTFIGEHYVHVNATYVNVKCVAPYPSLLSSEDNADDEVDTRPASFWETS
Sequence of FGFR3 (P22607 23-806, species assumed): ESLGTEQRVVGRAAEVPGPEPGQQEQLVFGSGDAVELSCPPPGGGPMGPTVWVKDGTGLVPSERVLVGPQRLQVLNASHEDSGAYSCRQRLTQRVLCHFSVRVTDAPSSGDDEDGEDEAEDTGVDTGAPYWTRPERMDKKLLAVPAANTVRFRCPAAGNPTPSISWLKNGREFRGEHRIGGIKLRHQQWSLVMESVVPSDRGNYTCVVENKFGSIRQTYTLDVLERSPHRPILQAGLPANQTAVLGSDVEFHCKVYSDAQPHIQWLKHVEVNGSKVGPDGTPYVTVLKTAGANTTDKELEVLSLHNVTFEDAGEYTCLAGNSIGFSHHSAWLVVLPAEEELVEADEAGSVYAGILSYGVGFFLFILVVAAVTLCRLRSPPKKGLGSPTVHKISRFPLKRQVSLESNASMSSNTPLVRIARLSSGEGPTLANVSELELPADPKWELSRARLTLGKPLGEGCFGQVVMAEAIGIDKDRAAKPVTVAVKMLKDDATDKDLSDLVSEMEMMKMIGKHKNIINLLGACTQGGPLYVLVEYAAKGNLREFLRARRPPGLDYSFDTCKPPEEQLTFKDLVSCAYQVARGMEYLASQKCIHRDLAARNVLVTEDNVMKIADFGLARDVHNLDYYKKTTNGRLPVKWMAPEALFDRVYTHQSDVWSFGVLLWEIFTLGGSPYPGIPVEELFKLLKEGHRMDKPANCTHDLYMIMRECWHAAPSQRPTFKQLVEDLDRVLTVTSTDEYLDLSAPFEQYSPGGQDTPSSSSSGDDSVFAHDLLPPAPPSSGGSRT

Cn1c(=O)n(-c2ccc(C(C)(C)C#N)cc2)c2c3cc(-c4cnc5ccccc5c4)ccc3ncc21 [NVP-BEZ235, reference compound]
effect on phosphorylation of S6 and 4E-BP1 [1]: nearly complete dephosphorylation of both S6 and 4E-BP1

Nc1cc(C(F)(F)F)c(-c2cc(N3CCOCC3)nc(N3CCOCC3)n2)cn1 [NVP-BKM120]
IC50 (KDR): > 10 µM | effect on phosphorylation of S6 and 4E-BP1 [1]: minor dephosphorylation only of the S6 protein | IC50 (c-Met): > 10 µM | IC50 (Tek): > 10 µM | IC50 (phosphorylation of Akt): 0.5 to 1 µM | IC50 (PDK1): > 10 µM | IC50 (FGFR3): > 10 µM | median survival time ([2]; 20 mg/kg oral): 38 days | median survival time ([2]; 40 mg/kg oral): 48 days | cells in mitosis (phospho-H3 positive) after treatment (D54 cells): 2.8% | cells in mitosis (phospho-H3 positive) after treatment (U343 cells): 3% | adverse effects with respect to body weight, water intake, and general activity [3]: no obvious signs of adverse effects | change of the percentage of apoptosis (Annexin V) (glioma cell lines; p53-mutant/deleted cell lines): 3.98% | change of the percentage of apoptosis (Annexin V) (glioma cell lines; p53-wt cell lines): 14.52% | cells in mitosis (phospho-H3 positive) after treatment (LN229 cells): 7.9% | cells in mitosis (phospho-H3 positive) after treatment (U251 cells): 12.4% | cells in mitosis (phospho-H3 positive) after treatment (U87 cells): 2.6% | cells in mitosis (phospho-H3 positive) after treatment (LN18 cells): 7.3%

C=CCN(/C=C1/C(=O)O[C@H](COC)[C@@]2(C)C1=C(O)C(=O)C1=C2[C@H](OC(C)=O)C[C@]2(C)C(=O)CC[C@@H]12)CC=C [PX-866]
IC50 (p110δ): low nanomolar range | IC50 (P110α): low nanomolar range | IC50 (p110γ): low nanomolar range

Source: publication PMC3785365 (Clinical cancer research : an official journal of the …, 2011)
